Measured values published in US8952024B2, “Herbicidal pyrimidone derivatives” (E I du Pont de Nemours and Company, priority 2009, dated 2015).

Tests used:
Test in all cases: Test B pre-/postemergence plant response
Type in all cases: in vivo
[1] = system: corn (Zea mays)
How it was run: (§1)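 Test compounds, formulated in a non-phytotoxic solvent mixture with surfactant, are applied to the soil surface (loam and sand blend) right after seeding, or sprayed over plants at the 1- to 4-leaf stage grown in peat moss/vermiculite medium. After 13 to 15 days under glasshouse conditions, each species is scored visually from 0 (no effect) to 100 (complete control) against controls.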

[2] = system: blackgrass (Alopecurus myosuroides)
How it was run: as §1

[3] = system: yellow nutsedge (Cyperus esculentus)
How it was run: as §1

[4] = system: Surinam grass (Brachiaria decumbens)
How it was run: as §1

[5] = system: velvetleaf (Abutilon theophrasti)
How it was run: as §1

[6] = system: johnsongrass (Sorghum halepense)
How it was run: as §1

[7] = system: large crabgrass (Digitaria sanguinalis)
How it was run: as §1

[8] = system: downy bromegrass (Bromus tectorum)
How it was run: as §1

[9] = system: giant foxtail (Setaria faberii)
How it was run: as §1

[10] = system: goosegrass (Eleusine indica)
How it was run: as §1

[11] = system: lambsquarters (Chenopodium album)
How it was run: as §1

[12] = system: ragweed (common ragweed, Ambrosia elatior)
How it was run: as §1

[13] = system: woolly cupgrass (Eriochloa villosa)
How it was run: as §1

[14] = system: bermudagrass (Cynodon dactylon)
How it was run: as §1

[15] = system: kochia (Kochia scoparia); conditions: Postemergence; for Plant response rating, Kochia: scale 0 (no effect) to 100 (complete control)
How it was run: as §1

[16] = system: green foxtail (Setaria viridis)
How it was run: as §1

[17] = system: Italian ryegrass (Lolium multiflorum)
How it was run: as §1

[18] = 250 g ai/ha, Preemergence, 0 to 100 scale
[19] = Postemergence, 31 g ai/ha, scale 0 to 100 (0 no effect, 100 complete control)
[20] = Postemergence, 62 g ai/ha, scale 0 (no effect) to 100 (complete control), 13 to 15 days
[21] = Postemergence, 125 g ai/ha, visual rating after 13 to 15 days, scale 0 (no effect) to 100 (complete control)
[22] = Postemergence, 250 g ai/ha, scale 0 to 100
[23] = Preemergence, 31 g ai/ha, scale 0 to 100 (0 no effect, 100 complete control)
[24] = Preemergence, 62 g ai/ha, scale 0 to 100, 0 no effect, 100 complete control
[25] = Preemergence, 125 g ai/ha, 0 to 100 scale

## Cc1cccc(-n2c(-c3cccc(Cl)c3)ncc(C(=O)C3=C(O)CCCC3=O)c2=O)c1 [Compound 45]
[1]; [18]
  Plant response rating, Corn: 0
[1]; [19]
  Plant response rating, Corn: 10
[1]; [20]
  Plant response rating, Corn: 45
[1]; [21]
  Plant response rating, Corn: 60
[1]; [22]
  Corn plant response rating: 80
[1]; [23]
  Plant response rating, Corn: 0
[1]; [24]
  Plant response rating, Corn: 0
[1]; [25]
  Corn plant response rating: 0
[2]; [18]
  Plant response rating, Blackgrass: 5
[2]; [19]
  Plant response rating, Blackgrass: 5
[2]; [20]
  Plant response rating, Blackgrass: 5
[2]; [21]
  Plant response rating, Blackgrass: 10
[2]; [22]
  Blackgrass plant response rating: 25
[2]; [23]
  Plant response rating, Blackgrass: 0
[2]; [24]
  Plant response rating, Blackgrass: 0
[2]; [25]
  Blackgrass plant response rating: 0
[3]; [18]
  Plant response rating, Nutsedge, Yellow: 70
[3]; [20]
  Plant response rating, Nutsedge, Yellow: 10
[3]; [21]
  Plant response rating, Nutsedge, Yellow: 45
[3]; [23]
  Plant response rating, Nutsedge, Yellow: 0
[3]; [25]
  Nutsedge, Yellow plant response rating: 20
[4]; [18]
  Plant response rating, Surinam Grass: 98
[4]; [20]
  Plant response rating, Surinam Grass: 75
[4]; [21]
  Plant response rating, Surinam Grass: 95
[4]; [23]
  Plant response rating, Surinam Grass: 45
[4]; [25]
  Surinam Grass plant response rating: 98
[5]; [18]
  Plant response rating, Velvetleaf: 95
[5]; [20]
  Plant response rating, Velvetleaf: 80
[5]; [21]
  Plant response rating, Velvetleaf: 90
[5]; [23]
  Plant response rating, Velvetleaf: 0
[5]; [25]
  Velvetleaf plant response rating: 85
[6]; [18]
  Plant response rating, Johnsongrass: 85
[6]; [20]
  Plant response rating, Johnsongrass: 90
[6]; [21]
  Plant response rating, Johnsongrass: 98
[6]; [22]
  Johnsongrass plant response rating: 100
[6]; [23]
  Plant response rating, Johnsongrass: 0
[6]; [24]
  Plant response rating, Johnsongrass: 45
[6]; [25]
  Johnsongrass plant response rating: 75
[7]; [18]
  Plant response rating, Crabgrass, Large: 100
[7]; [19]
  Plant response rating, Crabgrass, Large: 65
[7]; [20]
  Plant response rating, Crabgrass, Large: 75
[7]; [21]
  Plant response rating, Crabgrass, Large: 75
[7]; [22]
  Crabgrass, Large plant response rating: 85
[7]; [23]
  Plant response rating, Crabgrass, Large: 45
[7]; [24]
  Plant response rating, Crabgrass, Large: 95
[7]; [25]
  Crabgrass, Large plant response rating: 100
[8]; [18]
  Plant response rating, Bromegrass, Downy: 5
[8]; [19]
  Plant response rating, Bromegrass, Downy: 10
[8]; [20]
  Plant response rating, Bromegrass, Downy: 20
[8]; [21]
  Plant response rating, Bromegrass, Downy: 45
[8]; [22]
  Bromegrass, Downy plant response rating: 50
[8]; [23]
  Plant response rating, Bromegrass, Downy: 0
[8]; [24]
  Plant response rating, Bromegrass, Downy: 0
[8]; [25]
  Bromegrass, Downy plant response rating: 0
[9]; [18]
  Plant response rating, Foxtail, Giant: 75
[9]; [19]
  Plant response rating, Foxtail, Giant: 75
[9]; [20]
  Plant response rating, Foxtail, Giant: 90
[9]; [21]
  Plant response rating, Foxtail, Giant: 95
[9]; [22]
  Foxtail, Giant plant response rating: 98
[9]; [23]
  Plant response rating, Foxtail, Giant: 0
[9]; [24]
  Plant response rating, Foxtail, Giant: 0
[9]; [25]
  Foxtail, Giant plant response rating: 45
[10]; [18]
  Plant response rating, Goosegrass: 100
[10]; [20]
  Plant response rating, Goosegrass: 75
[10]; [21]
  Plant response rating, Goosegrass: 80
[10]; [22]
  Goosegrass plant response rating: 90
[10]; [23]
  Plant response rating, Goosegrass: 80
[10]; [25]
  Goosegrass plant response rating: 100
[11]; [18]
  Plant response rating, Lambsquarters: 100
[11]; [20]
  Plant response rating, Lambsquarters: 98
[11]; [21]
  Plant response rating, Lambsquarters: 100
[11]; [22]
  Lambsquarters plant response rating: 100
[11]; [23]
  Plant response rating, Lambsquarters: 100
[11]; [24]
  Plant response rating, Lambsquarters: 100
[11]; [25]
  Lambsquarters plant response rating: 100
[12]; [18]
  Plant response rating, Ragweed: 95
[12]; [20]
  Plant response rating, Ragweed: 85
[12]; [21]
  Plant response rating, Ragweed: 95
[12]; [23]
  Plant response rating, Ragweed: 45
[12]; [25]
  Ragweed plant response rating: 80
[13]; [18]
  Plant response rating, Cupgrass, Woolly: 75
[13]; [19]
  Plant response rating, Cupgrass, Woolly: 70
[13]; [20]
  Plant response rating, Cupgrass, Woolly: 75
[13]; [21]
  Plant response rating, Cupgrass, Woolly: 75
[13]; [22]
  Cupgrass, Woolly plant response rating: 80
[13]; [23]
  Plant response rating, Cupgrass, Woolly: 45
[13]; [24]
  Plant response rating, Cupgrass, Woolly: 45
[13]; [25]
  Cupgrass, Woolly plant response rating: 60
[14]; [18]
  Plant response rating, Bermudagrass: 100
[14]; [19]
  Plant response rating, Bermudagrass: 80
[14]; [20]
  Plant response rating, Bermudagrass: 85
[14]; [21]
  Plant response rating, Bermudagrass: 95
[14]; [22]
  Bermudagrass plant response rating: 100
[14]; [23]
  Plant response rating, Bermudagrass: 98
[14]; [24]
  Plant response rating, Bermudagrass: 100
[14]; [25]
  Bermudagrass plant response rating: 100
[15]; 62 g ai/ha, 13 to 15 days
  Plant response rating, Kochia: 0
[15]; 125 g ai/ha, visual rating after 13 to 15 days
  Plant response rating, Kochia: 15
[15]; 250 g ai/ha, scale 0 to 100
  Kochia plant response rating: 98
[16]; [18]
  Plant response rating, Foxtail, Green: 100
[16]; [19]
  Plant response rating, Foxtail, Green: 50
[16]; [20]
  Plant response rating, Foxtail, Green: 80
[16]; [21]
  Plant response rating, Foxtail, Green: 85
[16]; [22]
  Foxtail, Green plant response rating: 95
[16]; [23]
  Plant response rating, Foxtail, Green: 0
[16]; [24]
  Plant response rating, Foxtail, Green: 80
[16]; [25]
  Foxtail, Green plant response rating: 80
[17]; [18]
  Plant response rating, Ryegrass, Italian: 0
[17]; [20]
  Plant response rating, Ryegrass, Italian: 30
[17]; [21]
  Plant response rating, Ryegrass, Italian: 35
[17]; [23]
  Plant response rating, Ryegrass, Italian: 0
[17]; [25]
  Ryegrass, Italian plant response rating: 0
